In PubChem BioAssay AID330 (DTP/NCI, 2004):
Several values for one entry are separate records, joined by “and”; a condition that tells them apart may be missing. Equal entries are not always repeated. Toxic doses and inconclusive results are not listed.

System: P388 leukemia ip, CD2F1 mice, survival T/C
Test: NCI In Vivo Anticancer Drug Screen. Data for tumor model P388 Leukemia (intraperitoneal) in CD2F1 (CDF1) mice
Conditions: endpoint: median survival time, higher = longer survival
Summary of the method: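 Mice carrying the transplanted tumor received test compound or vehicle. Survival was recorded in each group, and the value is the treated-group measurement divided by that of the vehicle-treated control group.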

[1] = dose: 60.0 mg/kg/injection, schedule: Q01DX005 (ip), vehicle: Klucel (hydroxypropylcellulose) (HPC)
[2] = dose: 120.0 mg/kg/injection, schedule: Q01DX005 (ip), vehicle: Klucel (hydroxypropylcellulose) (HPC)
[3] = dose: 240.0 mg/kg/injection, schedule: Q01DX005 (ip), vehicle: Klucel (hydroxypropylcellulose) (HPC)
[4] = dose: 60.0 mg/kg/injection, schedule: Q01DX005 (ip), vehicle: saline with Tween-80
[5] = dose: 50.0 mg/kg/injection, schedule: Q01DX009 (ip), vehicle: saline
[6] = dose: 100.0 mg/kg/injection, schedule: Q01DX009 (ip), vehicle: saline
[7] = dose: 200.0 mg/kg/injection, schedule: Q01DX009 (ip), vehicle: saline
[8] = dose: 50.0 mg/kg/injection, schedule: Q01DX005 (ip), vehicle: saline with Tween-80
[9] = dose: 100.0 mg/kg/injection, schedule: Q01DX005 (ip), vehicle: saline with Tween-80
[10] = dose: 200.0 mg/kg/injection, schedule: Q01DX005 (ip), vehicle: saline with Tween-80

`COC(=O)C1(C)CCCC2(C)c3cc(O)c(C(C)C)cc3CCC12` (stereo not given) was tested, and the T/C (dose: 100.0 mg/kg/injection, schedule: Q01DX001 (ip), vehicle: Klucel (hydroxypropylcellulose) (HPC)) was 94 % of control, the T/C (dose: 200.0 mg/kg/injection, schedule: Q01DX001 (ip), vehicle: Klucel (hydroxypropylcellulose) (HPC)) was 94 % of control and the T/C (dose: 400.0 mg/kg/injection, schedule: Q01DX001 (ip), vehicle: Klucel (hydroxypropylcellulose) (HPC)) was 100 % of control.
In the case of `Clc1ccc(CSCc2c(CSCc3ccc(Cl)cc3)c(CSCc3ccc(Cl)cc3)c(CSCc3ccc(Cl)cc3)c(CSCc3ccc(Cl)cc3)c2CSCc2ccc(Cl)cc2)cc1`, the T/C (dose: 50.0 mg/kg/injection, schedule: Q01DX009 (ip), vehicle: saline with Tween-80) is reported as 102 % of control, the T/C (dose: 100.0 mg/kg/injection, schedule: Q01DX009 (ip), vehicle: saline with Tween-80) is reported as 102 % of control and the T/C (dose: 200.0 mg/kg/injection, schedule: Q01DX009 (ip), vehicle: saline with Tween-80) is reported as 99 % of control.
`C[CH2][Sn]([CH2]C)([n]1c(C)nc2ccccc21)[n]1c(C)nc2ccccc21` was tested, and the T/C (dose: 1.56 mg/kg/injection, schedule: Q01DX005 (ip), vehicle: Klucel (hydroxypropylcellulose) (HPC)) was 110 % of control, the T/C (dose: 3.12 mg/kg/injection, schedule: Q01DX005 (ip), vehicle: Klucel (hydroxypropylcellulose) (HPC)) was 122 % of control and the T/C (dose: 6.25 mg/kg/injection, schedule: Q01DX005 (ip), vehicle: Klucel (hydroxypropylcellulose) (HPC)) was 122 % of control.
For `CCC(=O)CC1(C(=O)OC)NC(=S)NC(=O)C1C#N` (stereo not given), the T/C [1] was 102 % of control, the T/C [2] was 103 % of control and the T/C [3] was 100 % of control.
With `CCOP(=O)(O)C1CCCC(C)[N-]1.CCOP(=O)(O)C1CCCC(C)[N-]1.CCOP(=O)(O)C1CCCC(C)[N-]1.[Ti+3]` (stereo not given) the T/C (dose: 50.0 mg/kg/injection, schedule: Q01DX001 (ip), vehicle: suspension in saline) was 94 % of control, the T/C (dose: 100.0 mg/kg/injection, schedule: Q01DX001 (ip), vehicle: suspension in saline) was 99 % of control and the T/C (dose: 200.0 mg/kg/injection, schedule: Q01DX001 (ip), vehicle: suspension in saline) was 88 % of control.
In the case of `CO/C1=C\C(C)=C\C(C)C(O)C(C)C/C(C)=C/C=C/C(OC)C(C(C)C(O)C(C)C2(O)CC(O)C(C)C(C(C)C)O2)OC1=O` (stereo not given), the T/C (dose: 1.25 mg/kg/injection, schedule: Q01DX005 (ip), vehicle: other) is reported as 104 % of control, the T/C (dose: 2.5 mg/kg/injection, schedule: Q01DX005 (ip), vehicle: other) is reported as 104 % of control and the T/C (dose: 5.0 mg/kg/injection, schedule: Q01DX005 (ip), vehicle: other) is reported as 113 % of control.
`COC(=O)C1(C2(C(=O)OC)NC(=S)NC(=O)C2C#N)CCCC1=O` (stereo not given) was tested, and the T/C [4] was 108 % of control, the T/C (dose: 120.0 mg/kg/injection, schedule: Q01DX005 (ip), vehicle: saline with Tween-80) was 105 % of control and the T/C (dose: 240.0 mg/kg/injection, schedule: Q01DX005 (ip), vehicle: saline with Tween-80) was 105 % of control.
In the case of `COc1nc(Cl)cn(C)c1=O`, the T/C (dose: 15.0 mg/kg/injection, schedule: Q01DX005 (ip), vehicle: saline with Tween-80) is reported as 101 % of control, the T/C (dose: 30.0 mg/kg/injection, schedule: Q01DX005 (ip), vehicle: saline with Tween-80) is reported as 98 % of control and the T/C [1] is reported as 95 % of control. The T/C [4] was 107 % of control and the T/C [2] was 106 % of control.
In the case of `CCCCCCCCC[N+]1([O-])CCOCC1`, the T/C [5] is reported as 100 % of control, the T/C [6] is reported as 97 % of control and the T/C [7] is reported as 88 % of control.
`Cc1ccc2c(c1)CCCc1c-2nn(-c2ccccc2)c1-c1ccc(Cl)cc1` was tested, and the T/C [8] was 86 % of control, the T/C [9] was 92 % of control and the T/C [10] was 90 % of control.
For `C#Cc1cccc(N=Cc2cc(Cl)cc(Cl)c2O)c1`, the T/C [8] was 102 % of control, the T/C [9] was 102 % of control and the T/C [10] was 108 % of control.
`O=C1N/C(=N/OF)C(F)C(NO)N1` (stereo not given) was tested, and the T/C (dose: 50.0 mg/kg/injection, schedule: Q01DX009 (ip), vehicle: Klucel (hydroxypropylcellulose) (HPC)) was 103 % of control, the T/C (dose: 100.0 mg/kg/injection, schedule: Q01DX009 (ip), vehicle: Klucel (hydroxypropylcellulose) (HPC)) was 103 % of control and the T/C (dose: 200.0 mg/kg/injection, schedule: Q01DX009 (ip), vehicle: Klucel (hydroxypropylcellulose) (HPC)) was 101 % of control.
For `C=C(C)C(=O)N(CC)CC`, the T/C [6] was 97 % of control and the T/C [7] was 102 % of control.
In the case of `CC(O)c1cc(C(C)O)cc(C(C)O)c1` (stereo not given), the T/C [5] is reported as 95 % of control, the T/C [6] is reported as 101 % of control and the T/C [7] is reported as 99 % of control.
In the case of `COc1cc(OC(C)C)cc2c1C(=O)C(C(O)(O)C(F)(F)F)=CC2=O`, the T/C (dose: 15.0 mg/kg/injection, schedule: Q01DX005 (ip), vehicle: Klucel (hydroxypropylcellulose) (HPC)) is reported as 109 % of control, the T/C (dose: 30.0 mg/kg/injection, schedule: Q01DX005 (ip), vehicle: Klucel (hydroxypropylcellulose) (HPC)) is reported as 103 % of control and the T/C [1] is reported as 99 % of control.
In the case of `COC(=O)c1nc(=S)[nH]c(C(=O)OC)c1C(=O)c1ccc(Cl)c(Cl)c1`, the T/C [1] is reported as 89 % of control, the T/C [2] is reported as 92 % of control and the T/C [3] is reported as 95 % of control.
In the case of `O=C1CNC(=O)N1CN1CCc2ccccc2C1`, the T/C (dose: 50.0 mg/kg/injection, schedule: Q01DX005 (ip), vehicle: Klucel (hydroxypropylcellulose) (HPC)) is reported as 99 % of control, the T/C (dose: 100.0 mg/kg/injection, schedule: Q01DX005 (ip), vehicle: Klucel (hydroxypropylcellulose) (HPC)) is reported as 105 % of control and the T/C (dose: 200.0 mg/kg/injection, schedule: Q01DX005 (ip), vehicle: Klucel (hydroxypropylcellulose) (HPC)) is reported as 99 % of control.
In the case of `COc1cccc2c1C(=O)c1c(O)c3c(c(O)c1C2=O)C[C@@](O)(/C(C)=N/NC(=O)c1cccc([N+](=O)[O-])c1)C[C@@H]3OC1CC(N)C(O)C(C)O1` (stereo not given in full), the T/C (dose: 0.5 mg/kg/injection, schedule: Q01DX009 (ip), vehicle: water) is reported as 152 % of control, the T/C (dose: 1.0 mg/kg/injection, schedule: Q01DX009 (ip), vehicle: water) is reported as 155 % of control and the T/C (dose: 1.0 mg/kg/injection, schedule: Q04DX003 (ip), vehicle: saline) is reported as 100 % of control and 112 % of control. The T/C (dose: 1.56 mg/kg/injection, schedule: Q04DX003 (ip), vehicle: water) was 106 % of control, the T/C (dose: 2.0 mg/kg/injection, schedule: Q01DX009 (ip), vehicle: water) was 172 % of control and 179 % of control and the T/C (dose: 2.0 mg/kg/injection, schedule: Q04DX003 (ip), vehicle: saline) was 100 % of control and 115 % of control. For the same compound, the T/C (dose: 3.13 mg/kg/injection, schedule: Q04DX003 (ip), vehicle: water) was 112 % of control and 117 % of control, the T/C (dose: 4.0 mg/kg/injection, schedule: Q01DX009 (ip), vehicle: water) was 190 % of control and 200 % of control and the T/C (dose: 4.0 mg/kg/injection, schedule: Q04DX003 (ip), vehicle: saline) was 113 % of control and 122 % of control. For the same compound, the T/C (dose: 5.0 mg/kg/injection, schedule: Q01DX001 (ip), vehicle: water) was 167 % of control, the T/C (dose: 6.25 mg/kg/injection, schedule: Q04DX003 (ip), vehicle: water) was 114 % of control and 122 % of control and the T/C (dose: 8.0 mg/kg/injection, schedule: Q01DX009 (ip), vehicle: water) was 123 % of control and 202 % of control. For the same compound, the T/C (dose: 8.0 mg/kg/injection, schedule: Q04DX003 (ip), vehicle: saline) was 112 % of control and 115 % of control and 95 % of control, the T/C (dose: 10.0 mg/kg/injection, schedule: Q01DX001 (ip), vehicle: water) was 186 % of control and the T/C (dose: 16.0 mg/kg/injection, schedule: Q04DX003 (ip), vehicle: saline) was 110 % of control and 115 % of control and 123 % of control. For the same compound, the T/C (dose: 25.0 mg/kg/injection, schedule: Q04DX003 (ip), vehicle: water) was 168 % of control, the T/C (dose: 32.0 mg/kg/injection, schedule: Q04DX003 (ip), vehicle: saline) was 118 % of control and the T/C (dose: 64.0 mg/kg/injection, schedule: Q04DX003 (ip), vehicle: saline) was 174 % of control. For the same compound, the T/C (dose: 100.0 mg/kg/injection, schedule: Q04DX003 (ip), vehicle: water) was 114 % of control, the T/C (dose: 512.0 mg/kg/injection, schedule: Q04DX003 (ip), vehicle: saline) was 92 % of control and the T/C (dose: 1024.0 mg/kg/injection, schedule: Q04DX003 (ip), vehicle: saline) was 93 % of control. For the same compound, the T/C (dose: 2048.0 mg/kg/injection, schedule: Q04DX003 (ip), vehicle: saline) was 90 % of control.
`Cc1cc(Cl)cc2c1OCOC2` was tested, and the T/C (dose: 50.0 mg/kg/injection, schedule: Q01DX009 (ip), vehicle: acetone) was 101 % of control and the T/C (dose: 100.0 mg/kg/injection, schedule: Q01DX009 (ip), vehicle: acetone) was 102 % of control.
With `COCCOCCOCCOCCOCCOCCOCCOC(=O)CCn1cc(F)c(=O)[nH]c1=O` the T/C (dose: 62.5 mg/kg/injection, schedule: Q04DX002 (ip), vehicle: saline) was 99 % of control, the T/C (dose: 125.0 mg/kg/injection, schedule: Q04DX002 (ip), vehicle: saline) was 108 % of control and the T/C (dose: 250.0 mg/kg/injection, schedule: Q04DX002 (ip), vehicle: saline) was 101 % of control. For the same compound, the T/C (dose: 500.0 mg/kg/injection, schedule: Q04DX002 (ip), vehicle: saline) was 109 % of control.
